Experimental data reported in paper PMC4506092, “Utilizing Chemical Genomics to Identify Cytochrome b as a Novel Drug Target for Chagas Disease” (PLoS Pathogens, 2015).
Like-named read-outs stand apart in the source and are kept apart here.

Legend:
[1] = system: T. cruzi epimastigotes (wild-type); experiment: T. cruzi epimastigote growth assay (CellTiter-Glo), wild-type; assay type: cell-based, Trypanosoma cruzi; conditions: for EC50: wild-type T. cruzi, seven days, read-out: Epimastigote EC50, WT
Procedure: To determine compound activity on the T. cruzi epimastigote form, epimastigotes (20 μL; 2.5 × 10^5 parasites / mL) were added to 384-well assay plates containing 20 μL of LIT media with pre-dispensed compounds (0.2% DMSO final concentration) and incubated for seven days at 26°C / 0% CO2. Parasite viability was assessed at the end of this incubation period using the CellTiter-Glo Luminescent Cell Viability Assay (Promega). Luminescence as a measure of parasite viability was measured on the EnVision plate reader.

[2] = system: T. cruzi trypomastigotes (GNF7686-resistant, DR); experiment: T. cruzi trypomastigote viability assay (CellTiter-Glo), GNF7686-resistant; assay type: cell-based, Trypanosoma cruzi; conditions: for EC50: GNF7686-resistant T. cruzi, 48-hour incubation
Procedure: (§1) To assess compound efficacy on trypomastigotes, parasites (30 μL; 2 × 10^6 trypomastigotes / mL) were added to 384-well plates containing 10 μL of RPMI-1640 without phenol red (Invitrogen) and supplemented with 10% FBS and 100 IU penicillin / 100 µg streptomycin per mL, and then treated with compounds (0.2% DMSO final concentration). Following a 48-hour incubation period, viability was assessed using the CellTiter-Glo Luminescent Cell Viability Assay (Promega).

[3] = system: T. b. brucei bloodstream form; experiment: T. b. brucei bloodstream form in vitro efficacy assay; assay type: cell-based, Trypanosoma brucei brucei; conditions: 48 hours, read-out: T. b. Brucei EC50, BSF
Procedure: Trypanosoma brucei brucei (T. b. brucei) bloodstream form (strain Lister 427) was maintained in HMI-9 medium: IMDM (Iscove's Modified Dulbecco's Media), 10% heat-inactivated FBS, 10% Serum Plus medium supplement (SAFC biosciences), 1 mM hypoxanthine, 50 μM bathocuproine disulfonate.Na2, 1.5 mM cysteine, 1 mM pyruvate, 39 μg/mL thymidine, and 0.2 mM 2-mercapthoethanol) at 37°C / 5% CO2.
For compound screening, parasites were seeded into 384-well assay plates containing HMI-9 with pre-dispensed compounds (0.25% final DMSO concentration) at a density of 6,000 cells / well, and plates were then incubated for 48 hours at 37°C / 5% CO2. Cell viability was assessed using the CellTiter-Glo Luminescent Cell Viability Assay (Promega).

[4] = system: T. cruzi trypomastigotes (wild-type); experiment: T. cruzi trypomastigote viability assay (CellTiter-Glo), wild-type; assay type: cell-based, Trypanosoma cruzi; conditions: 48-hour incubation, read-out: Trypomastigote EC50, WT
Procedure: as §1

[5] = system: S. cerevisiae strain NF7061; experiment: S. cerevisiae susceptibility assay, YPD (dextrose) medium; assay type: cell-based, Saccharomyces cerevisiae; conditions: 24 hours
Procedure: The minimal inhibitory concentrations (MIC) of the compounds for inhibition of S. cerevisiae drug pump knock-out strain NF7061 (MATa his3Δ 1; leu2Δ 0; met15Δ 0; ura3Δ 0; snq2::KanMX; pdr5::KanMX; pdr1::NAT1; pdr3::KanMX; yap1::NAT1; pdr2::LEU2; yrm1::MET; yor1::LYS2) were determined by a modification of the microdilution technique described elsewhere. Briefly, two-fold dilutions of the compound solution in DMSO were made. They were added to each well of 96-well assay plate containing 200 μL per well of either YPD (1% Difco Yeast Extract, 2% Difco Bacto Peptone and 2% Dextrose) or YPG (3% of glycerol in replacement of 2% Dextrose in YP) medium. Early stationary yeast NF7061 cells grown in either medium were collected and resuspended to 2 × 10^5 cells / mL. Ten microliters of the yeast cell suspension were inoculated to each well of the plates containing medium and compound to achieve a final inoculum of approximately 10^4 CFU / mL. The plates were incubated at 30°C for 24 hours (containing YPD) or 48 hours (containing YPG).

[6] = system: T. cruzi intracellular amastigotes (GNF7686-resistant, DR); experiment: T. cruzi intracellular amastigote efficacy assay in NIH/3T3 cells, GNF7686-resistant strain; assay type: cell-based; conditions: Trypanosoma cruzi, NIH3T3, intracellular amastigotes in NIH/3T3, 48-hour treatment
Procedure: To determine compound efficacy on T. cruzi intracellular amastigotes, NIH/3T3 cells were seeded (1,000 cells / well, 40 μL) into microscopy-grade, clear bottom, 384-well plates (Greiner) in RPMI-1640 medium containing 5% heat-inactivated fetal bovine serum and 100 IU penicillin / 100 μg streptomycin per mL. Plates were incubated overnight at 37°C / 5% CO2. Cells were infected with T. cruzi trypomastigotes at a multiplicity of infection (MOI) of 10 for the wild-type strain, and 20 for the GNF7686-resistant mutant strain. After six hours of infection (at 37°C / 5% CO2), the plates were washed by aspirating the medium and replacing with fresh screening medium to remove remaining extracellular trypomastigotes. The plates with infected cells were incubated overnight (37°C / 5% CO2) and compounds dissolved in DMSO were added to plate wells on the following day (0.2% DMSO final concentration). […] The plates were then scanned using the Evotec Opera High Content Screening System (Perkin Elmer) and amastigote proliferation was assessed by counting parasites within the 3T3 cells using CellProfiler version 2.1.0 cell image analysis software. […]

[7] = Saccharomyces cerevisiae, NF7061, MIC visual growth inhibition screen

| SMILES | EC50 ([1]; Trypanosoma cruzi, 168 h) | Shift of trypomastigote potency, mutant vs wild-type [2] | EC50 ([2]; Trypanosoma cruzi) | EC50 ([3]; Trypanosoma brucei) | EC50 ([4]; Trypanosoma cruzi) | EC50 [5, 7] | EC50 [6] | EC20 value on T. cruzi epimastigotes ([1]; starting concentration of resistance selection) | EC50 [1] | EC50 [2] | EC50 [3] | EC50 [4] | EC50 ([5]; MIC visual growth inhibition screen) |
| --- | --- | --- | --- | --- | --- | --- | --- | --- | --- | --- | --- | --- | --- |
| CCCCCC[C@H]1C(=O)O[C@H](C)[C@H](NC(=O)c2cccc(NC=O)c2O)C(=O)O[C@@H](C)[C@@H]1OC(=O)CC(C)C [Antimycin A] | 46 ± 10 nM | 20 fold | 4300 ± 1300 nM | > 25000 nM | 200 ± 40 nM | 5000 nM |  |  |  |  |  |  |  |
| O=C(Cn1ccnc1[N+](=O)[O-])NCc1ccccc1 [Benznidazole] | 5500 ± 150 nM |  | 11000 ± 580 nM | > 25000 nM | 13000 ± 1800 nM | > 40000 nM | 820 ± 130 nM |  |  |  |  |  |  |
| CCc1c(C)c(C#N)c2nc3ccccc3n2c1O [GNF7686] | 160 ± 20 nM |  | 4500 ± 840 nM | > 25000 nM | 710 ± 160 nM | > 40000 nM | 660 ± 120 nM | 10 nM |  |  |  |  |  |
| CO/C(=C/C(N)=O)[C@H](C)[C@H](/C=C/c1csc(-c2csc([C@@H](C)/C=C/C=C/C(C)C)n2)n1)OC [Myxothiazol] |  |  |  |  |  |  |  |  | 490 ± 50 nM | 2900 ± 430 nM | 17200 ± 3100 nM | 2900 ± 480 nM | 30000 ± 10000 nM |
| CO\C=C(C(=O)OC)/C(C)=C\C=C\c1ccccc1 [Strobilurin] | 590 ± 130 nM |  | 1400 ± 360 nM | > 25000 nM | 1700 ± 410 nM | > 40000 nM |  |  |  |  |  |  |  |
